Data as given in patent publication US10377770B2 (Novartis AG, priority 2015, dated 2019).

Target: C-Raf FL (full length CRAF with Y340E and Y341E activating mutations, co-expressed with h14-3-3 zeta) (Homo sapiens (Human), UniProt P04049, Y340E/Y341E)
Experiment: In vitro Raf activity determination, AlphaScreen p-MEK readout, c-Raf (C-Raf FL)
Assay type: biochemical
Conditions: c-Raf approximately 4 nM, ATP 1 μM, pre-incubation 60 minutes, reaction 1 hour
Description: Sf9 cells co-expressing both proteins were lysed and subjected to immobilized nickel chromatography and eluted with Imidazole. A second column (StrepII binding column) was used and eluted with desthiobiotin. Protein Tags were removed using Prescission enzyme and the protein was further purified using a flowthrough step to remove tags.
C-Raf TR refers to a truncated C-Raf protein, a Δ1-324 deletion mutant. C-Raf FL refers to the full-length C-Raf protein.
Full length MEK1 with an inactivating K97R ATP binding site mutation is utilized as a RAF substrate. The MEK1 cDNA was subcloned with an N-terminal (his)6 tag into a vector for E. Coli expression. The MEK1 substrate was purified from E. Coli lysate by nickel affinity chromatography followed by anion exchange. The final MEK1 preparation was biotinylated (Pierce EZ-Link Sulfo-NHS-LC-Biotin) and concentrated.
Assay Materials: Assay buffer is 50 mM Tris, pH 7.5, 15 mM MgCl2, 0.01% Bovine Serum Albumin (BSA) and 1 mM dithiothreitol (DTT); Stop buffer is 60 mM ethylenediaminetetraacetic acid (EDTA) and 0.01% Tween® 20; b-Raf (V600E), active; biotinylated Mek, kinase dead; Alpha Screen detection kit (available from PerkinElmer™, #6760617R); Anti phospho-MEK1/2 (available from Cell Signaling Technology, Inc. #9121); 384 well low volume assay plates (White Greiner® plates).
Assay conditions: b-Raf (V600E) approximately 4 pM; c-Raf approximately 4 nM; biotinylated Mek, kinase dead approximately 10 nM; ATP 10 μM for BRAF (V600E) and 1 μM for CRAF; Pre-incubation time with compounds 60 minutes at room temperature; Reaction time 1 or 3 hours at room temperature.
Assay protocol: Raf and biotinylated Mek (kinase dead) were combined at 2× final concentrations in assay buffer (50 mM Tris, pH 7.5, 15 mM MgCl2, 0.01% BSA and 1 mM DTT) and dispensed […] per well in assay plates (Greiner white 384 well assay plates #781207) containing […] of 40× of a Raf kinase inhibitor test compound diluted in 100% DMSO. The plate was incubated for 60 minutes at room temperature. The Raf kinase activity reaction was started by the addition of […] per well of 2×ATP diluted in assay buffer. After 3 hours (b-Raf(V600E)) or 1 hour (c-Raf). The reactions were stopped and the phosphorylated product was measured using a rabbit anti-p-MEK (Cell Signaling, #9121) antibody and the Alpha Screen IgG (ProteinA) detection Kit (PerkinElmer #6760617R), by the addition of […] to the well of a mixture of the antibody (1:2000 dilution) and detection beads (1:2000 dilution of both beads) in Stop/bead buffer (25 mM EDTA, 50 mM Tris, pH 7.5, 0.01% Tween20). The additions were carried out under dark conditions to protect the detection beads from light. A lid was placed on top of the plate and incubated for 1 hour at room temperature, after which the luminescence was read on a PerkinElmer Envision instrument.

Sequence of C-Raf FL (full length CRAF with Y340E and Y341E activating mutations, co-expressed with h14-3-3 zeta) (P04049 whole entry Y340E/Y341E): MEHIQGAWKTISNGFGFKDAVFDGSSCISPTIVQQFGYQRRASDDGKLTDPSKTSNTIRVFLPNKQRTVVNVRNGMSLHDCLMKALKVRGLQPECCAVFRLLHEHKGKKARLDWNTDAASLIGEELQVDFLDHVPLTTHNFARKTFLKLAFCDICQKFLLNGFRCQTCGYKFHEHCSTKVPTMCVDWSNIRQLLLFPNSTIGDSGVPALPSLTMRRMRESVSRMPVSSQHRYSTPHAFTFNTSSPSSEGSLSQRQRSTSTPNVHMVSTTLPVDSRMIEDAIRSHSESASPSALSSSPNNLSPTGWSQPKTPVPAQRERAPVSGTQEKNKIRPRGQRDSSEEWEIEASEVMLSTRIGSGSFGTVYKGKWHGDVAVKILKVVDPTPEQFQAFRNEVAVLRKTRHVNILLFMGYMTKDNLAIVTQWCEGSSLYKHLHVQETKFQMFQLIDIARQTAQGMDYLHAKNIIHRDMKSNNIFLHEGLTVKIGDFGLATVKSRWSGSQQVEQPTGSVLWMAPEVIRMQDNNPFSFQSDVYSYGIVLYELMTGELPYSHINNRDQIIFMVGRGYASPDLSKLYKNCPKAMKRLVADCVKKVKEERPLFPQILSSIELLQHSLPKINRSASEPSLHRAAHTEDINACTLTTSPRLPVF
Sequence of C-Raf FL (full length CRAF with Y340E and Y341E activating mutations, co-expressed with h14-3-3 zeta) (P63104 whole entry partner): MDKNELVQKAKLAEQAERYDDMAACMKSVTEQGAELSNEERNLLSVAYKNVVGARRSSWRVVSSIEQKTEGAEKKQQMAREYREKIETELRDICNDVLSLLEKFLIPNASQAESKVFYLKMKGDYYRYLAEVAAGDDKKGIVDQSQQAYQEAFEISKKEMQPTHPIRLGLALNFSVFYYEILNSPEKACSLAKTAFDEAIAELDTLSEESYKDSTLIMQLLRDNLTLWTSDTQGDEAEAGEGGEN

Row | SMILES | IC50 [nM]
1 | Cc1ccc(NC(=O)c2ccnc(C(C)(F)F)c2)cc1-c1ccc2c(c1)N1CCOC[C@H]1C1(COC1)C2 [Example 57, (R)-2-(1,1-difluoroethyl)-N-(4-methyl-3-(1′,2′,4′,4a′-tetrahydro-6′H-spiro[oxetane-3,5′-[1,4]oxazino[4,3-a]quinolin]-9′-yl)phenyl)isonicotinamide] | 0.011
2 | Cc1ccc(NC(=O)c2ccnc(C(F)(F)F)c2F)cc1-c1cc2n(c(=O)c1)CC[C@@H]1COCCN21 [Example 415, (R)-3-fluoro-N-(4-methyl-3-(8-oxo-1,2,4,4a,5,6-hexahydro-8H-pyrido[2′,1′:2,3]pyrimido[6,1-c][1,4]oxazin-10-yl)phenyl)-2-(trifluoromethyl)isonicotinamide] | 0.8
3 | Cc1ncc(NC(=O)c2ccnc(C(C)(F)F)c2)cc1-c1ccc2c(c1)N1CCOC[C@H]1[C@@](C)(C#N)C2 [Example 375, N-(5-((4aR,5S)-5-cyano-5-methyl-1,2,4,4a,5,6-hexahydro-[1,4]oxazino[4,3-a]quinolin-9-yl)-6-methylpyridin-3-yl)-2-(1,1-difluoroethyl)isonicotinamide] | 0.4
4 | CCN1C(=O)Cc2nncn2-c2cc(-c3cc(NC(=O)c4ccnc(C(C)(F)F)c4)ccc3C)cnc21 (racemic) [Example 234, 2-(1,1-difluoroethyl)-N-(3-(6-ethyl-5-oxo-5,6-dihydro-4H-pyrido[2,3-b][1,2,4]triazolo[4,3-d][1,4]diazepin-9-yl)-4-methylphenyl)isonicotinamide] | 1.3
5 | CNC(=O)C1Cc2ncc(-c3cc(NC(=O)c4ccnc(C(C)(F)F)c4)ccc3C)cc2N2CCOCC12 (racemic) [Example 173, rac-9-(5-(2-(1,1-difluoroethyl)isonicotinamido)-2-methylphenyl)-N-methyl-1,2,4,4a,5,6-hexahydro-[1,4]oxazino[4,3-a][1,5]naphthyridine-5-carboxamide] | 0.012
6 | Cc1ccc(NC(=O)c2ccnc(C(F)(F)F)c2)cc1-c1cnc2c(c1)N1CCOC[C@H]1C(C)(C)[C@H]2N [Example 527] | 0.9
7 | CCN1c2ncc(-c3cc(NC(=O)c4ccnc(C(F)(F)F)c4)ccc3C)cc2[C@@H]2CCOC[C@H]2C12CC2 [Example 361, N-(3-((4a′R,10b′R)-6′-ethyl-1′,2′,4′,4a′,6′,10b′-hexahydrospiro[cyclopropane-1,5′-pyrano[3,4-c][1,8]naphthyridin]-9′-yl)-4-methylphenyl)-2-(trifluoromethyl)isonicotinamide] | 0.9
8 | CCN1C(=O)C[C@H]2COCCN2c2cc(-c3cc(NC(=O)c4ccnc(C(F)(F)F)c4)ccc3C)cnc21 [Example 130, (S)-N-(3-(7-ethyl-6-oxo-1,2,4a,5,6,7-hexahydro-4H-[1,4]oxazino[4,3-d]pyrido[2,3-b][1,4]diazepin-10-yl)-4-methylphenyl)-2-(trifluoromethyl)isonicotinamide] | 0.37
9 | Cc1ccc(NC(=O)c2ccnc(C(C)(F)F)c2)cc1-c1cc(F)c2c(c1)N1CCOC[C@@H]1[C@@](F)(CO)C2 [Example 425, N-(3-((4aR,5R)-5,7-difluoro-5-(hydroxymethyl)-1,2,4,4a,5,6-hexahydro-[1,4]oxazino[4,3-a]quinolin-9-yl)-4-methylphenyl)-2-(1,1-difluoroethyl)isonicotinamide] | 0.4
10 | Cc1ccc(NC(=O)c2ccnc(C(C)(F)F)c2)cc1-c1cnc2c(c1)N1CCOC[C@@H]1C[C@@H]2O [Example 109, 2-(1,1-difluoroethyl)-N-(3-((4aS,6S)-6-hydroxy-1,2,4,4a,5,6-hexahydro-[1,4]oxazino[4,3-a][1,5]naphthyridin-n-9-yl)-4-methylphenyl)isonicotinamide] | 0.0057
11 | CCN1C(=O)C2COCCN2c2cc(-c3cc(NC(=O)c4ccnc(C(F)(F)F)c4)ccc3C)cnc21 (stereo in doubt) [Example 114, (S)-N-(3-(6-Ethyl-5-oxo-1,2,4,4a,5,6-hexahydropyrido[2′,3′:5,6]pyrazino[2,1-c][1,4]oxazin-9-yl)-4-methylphenyl)-2-(trifluoromethyl)isonicotinamide] | 0.07
12 | Cc1ccc(NC(=O)c2ccnc(C(F)(F)F)c2)cc1-c1cc(F)c2c(c1)N1CCOC[C@H]1[C@](F)(CO)C2 [Example 419] | 0.5
13 | Cc1ncc(NC(=O)c2cccc(C(F)(F)F)c2)cc1-c1cnc2c(c1)[C@@H]1CCOC[C@H]1C(=O)N2CCO [Example 259, N-(5-((4aS, 10bR)-6-(2-hydroxyethyl)-5-oxo-2,4,4a,5,6,10b-hexahydro-1H-pyrano[3,4-c][1,8]naphthyridin-9-yl)-6-methylpyridin-3-yl)-3-(trifluoromethyl) benzamide] | 0.6
14 | Cc1ncc(NC(=O)c2ccnc(C(C)(F)F)c2)cc1-c1ccc2c(c1)N1CCOC[C@@H]1[C@](C)(C#N)C2 [Example 376, N-(5-((4aS,5R)-5-cyano-5-methyl-1,2,4,4a,5,6-hexahydro-[1,4]oxazino[4,3-a]quinolin-9-yl)-6-methylpyridin-3-yl)-2-(1,1-difluoroethyl)isonicotinamide] | 0.5
15 | Cc1ncc(NC(=O)c2cccc(C(F)(F)F)c2)cc1-c1ccc2c(c1)N1CCOCC1C(CO)C2 (racemic) [Example 61, (rac)-N-(5-(5-(hydroxymethyl)-1,2,4,4a,5,6-hexahydro-[1,4]oxazino[4,3-a]quinolin-9-yl)-6-methylpyridin-3-yl)-3-(trifluoromethyl)benzamide] | 0.033
16 | Cc1ccc(NC(=O)c2ccnc(C(C)(F)F)c2)cc1-c1ccc2c(c1)N1CCOCC1CC2O (racemic) [Example 16, (rac)-2-(1,1-difluoroethyl)-N-(3-(6-hydroxy-1,2,4,4a,5,6-hexahydro-[1,4]oxazino[4,3-a]quinolin-9-yl)-4-methylphenyl)isonicotinamide] | 0.055
17 | Cc1ccc(NC(=O)c2ccnc(C(F)(F)F)c2)cc1-c1cnc2c(c1)N1CCOC[C@H]1[C@](C)(C#N)C2 [Example 377, N-(3-((4aR,5R)-5-cyano-5-methyl-1,2,4,4a,5,6-hexahydro-[1,4]oxazino[4,3-a][1,5]naphthyridin-9-yl)-4-methylphenyl)-2-(trifluoromethyl)isonicotinamide] | 0.9
18 | Cc1ccc(NC(=O)c2cncc(C(F)(F)F)c2)cc1-c1cnc2c(c1)N1CCOC[C@H]1C[C@@H]2O (racemic) [Example 144, rac-cis-N-(3-(6-hydroxy-1,2,4,4a,5,6-hexahydro-[1,4]oxazino[4,3-a][1,5]naphthyridin-9-yl)-4-methylphenyl)-5-(trifluoromethyl)nicotinamide] | 0.0023
19 | Cc1ncc(NC(=O)c2cccc(C(F)(F)F)c2)cc1-c1ccc2c(c1)N1CCOC[C@H]1[C@@](F)(CO)C2 [Example 394, N-(5-((4aS,5R)-5-fluoro-5-(hydroxymethyl)-1,2,4,4a,5,6-hexahydro-[1,4]oxazino[4,3-a]quinolin-9-yl)-6-methylpyridin-3-yl)-3-(trifluoromethyl)benzamide] | 0.3
20 | Cc1ccc(NC(=O)c2ccnc(C(F)(F)F)c2)cc1-c1ccc2c(c1)N1CCOCC1CC2(C)O (racemic) [Example 22, (rac)-N-(3-(6-hydroxy-6-methyl-1,2,4,4a,5,6-hexahydro-[1,4]oxazino[4,3-a]quinolin-9-yl)-4-methylphenyl)-2-(trifluoromethyl)isonicotinamide] | 0.23
